Assay results reported in ChEMBL document CHEMBL3621113, “Strategies for the Discovery of Target-Specific or Isoform-Selective Modulators” (J Med Chem, 2015).

Columns and labels:
[1] = target: T1, Amine oxidase [flavin-containing] B (Homo sapiens, UniProt P27338)
T1 sequence (P27338 whole entry): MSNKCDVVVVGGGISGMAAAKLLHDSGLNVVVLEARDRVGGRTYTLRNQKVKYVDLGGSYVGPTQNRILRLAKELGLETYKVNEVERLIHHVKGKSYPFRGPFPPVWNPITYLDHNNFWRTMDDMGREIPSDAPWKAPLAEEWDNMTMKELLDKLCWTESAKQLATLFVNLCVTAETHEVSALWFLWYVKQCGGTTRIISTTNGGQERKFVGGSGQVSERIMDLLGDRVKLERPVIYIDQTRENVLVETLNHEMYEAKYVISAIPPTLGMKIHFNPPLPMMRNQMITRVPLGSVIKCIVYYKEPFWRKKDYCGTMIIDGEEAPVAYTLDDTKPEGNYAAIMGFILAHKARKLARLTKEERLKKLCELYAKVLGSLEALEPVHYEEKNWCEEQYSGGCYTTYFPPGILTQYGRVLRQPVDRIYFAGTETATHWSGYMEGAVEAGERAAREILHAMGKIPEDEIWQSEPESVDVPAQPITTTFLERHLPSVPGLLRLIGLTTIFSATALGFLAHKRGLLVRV
Description: Inhibition of human MAO-B using (4S)-4,5-dihydro-2-(6-hydroxybenzothiazolyl)-4-thiazolecarboxylic acid as substrate after 60 mins by MAO-Glo assay

[2] = target: T2, Amine oxidase [flavin-containing] A (Homo sapiens, UniProt P21397)
T2 sequence (P21397 whole entry): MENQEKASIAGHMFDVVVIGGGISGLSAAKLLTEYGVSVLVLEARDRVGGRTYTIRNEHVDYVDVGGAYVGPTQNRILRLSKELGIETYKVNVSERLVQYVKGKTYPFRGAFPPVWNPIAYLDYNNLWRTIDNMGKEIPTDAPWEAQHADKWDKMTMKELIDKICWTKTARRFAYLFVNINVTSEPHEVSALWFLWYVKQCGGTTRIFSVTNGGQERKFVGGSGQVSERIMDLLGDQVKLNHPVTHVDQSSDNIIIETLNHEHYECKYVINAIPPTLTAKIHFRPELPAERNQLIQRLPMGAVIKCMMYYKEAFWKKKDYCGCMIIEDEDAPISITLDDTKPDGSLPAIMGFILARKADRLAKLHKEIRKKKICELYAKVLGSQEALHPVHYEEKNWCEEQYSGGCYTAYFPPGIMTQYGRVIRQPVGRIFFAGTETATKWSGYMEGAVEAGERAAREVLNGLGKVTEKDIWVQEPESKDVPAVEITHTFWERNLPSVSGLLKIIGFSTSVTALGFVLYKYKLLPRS
Description: Inhibition of human MAO-A using (4S)-4,5-dihydro-2-(6-hydroxybenzothiazolyl)-4-thiazolecarboxylic acid as substrate after 60 mins by MAO-Glo assay

[3] = target: T2, Amine oxidase [flavin-containing] A; assay: Inhibition of MAO-A (unknown origin)
[4] = target: T3, Phosphatidylinositol 4,5-bisphosphate 3-kinase catalytic subunit delta isoform (Homo sapiens, UniProt O00329); assay: Inhibition of recombinant human PI3Kdelta by TR-FRET analysis
T3 sequence (O00329 whole entry): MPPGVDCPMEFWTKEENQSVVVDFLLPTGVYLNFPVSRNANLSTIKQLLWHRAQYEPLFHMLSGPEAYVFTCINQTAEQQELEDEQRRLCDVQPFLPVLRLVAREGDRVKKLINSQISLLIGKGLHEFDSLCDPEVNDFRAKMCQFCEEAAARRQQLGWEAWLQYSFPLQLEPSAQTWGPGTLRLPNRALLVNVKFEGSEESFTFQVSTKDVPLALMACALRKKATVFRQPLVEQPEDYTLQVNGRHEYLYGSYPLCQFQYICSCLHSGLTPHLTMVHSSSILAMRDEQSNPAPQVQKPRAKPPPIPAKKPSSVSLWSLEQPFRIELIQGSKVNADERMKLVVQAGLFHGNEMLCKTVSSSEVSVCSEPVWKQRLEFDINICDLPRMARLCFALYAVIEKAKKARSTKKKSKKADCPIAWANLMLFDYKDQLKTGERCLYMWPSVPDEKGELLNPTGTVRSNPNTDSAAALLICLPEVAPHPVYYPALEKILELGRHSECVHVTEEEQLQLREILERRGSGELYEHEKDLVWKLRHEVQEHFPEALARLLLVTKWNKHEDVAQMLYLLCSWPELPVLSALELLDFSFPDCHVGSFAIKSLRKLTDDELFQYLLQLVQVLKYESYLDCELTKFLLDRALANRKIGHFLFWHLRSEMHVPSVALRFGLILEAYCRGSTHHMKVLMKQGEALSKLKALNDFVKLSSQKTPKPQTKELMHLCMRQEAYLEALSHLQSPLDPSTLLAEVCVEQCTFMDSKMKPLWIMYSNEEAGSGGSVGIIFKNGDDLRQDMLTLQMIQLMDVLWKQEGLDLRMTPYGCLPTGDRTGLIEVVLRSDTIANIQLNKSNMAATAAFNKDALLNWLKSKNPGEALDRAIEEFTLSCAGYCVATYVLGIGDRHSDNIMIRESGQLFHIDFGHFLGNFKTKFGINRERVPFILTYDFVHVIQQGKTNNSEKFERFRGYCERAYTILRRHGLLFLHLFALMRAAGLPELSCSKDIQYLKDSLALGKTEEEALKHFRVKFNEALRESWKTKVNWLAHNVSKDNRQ

[5] = target: Serine/threonine-protein kinase mTOR (Homo sapiens, UniProt P42345); assay: Inhibition of recombinant human mTOR by TR-FRET analysis
[6] = target: Phosphatidylinositol 4,5-bisphosphate 3-kinase catalytic subunit gamma isoform (Homo sapiens, UniProt P48736); assay: Inhibition of recombinant human PI3Kgamma by TR-FRET analysis
Chain of Phosphatidylinositol 4,5-bisphosphate 3-kinase catalytic subunit gamma isoform (P48736 whole entry, canonical isoform): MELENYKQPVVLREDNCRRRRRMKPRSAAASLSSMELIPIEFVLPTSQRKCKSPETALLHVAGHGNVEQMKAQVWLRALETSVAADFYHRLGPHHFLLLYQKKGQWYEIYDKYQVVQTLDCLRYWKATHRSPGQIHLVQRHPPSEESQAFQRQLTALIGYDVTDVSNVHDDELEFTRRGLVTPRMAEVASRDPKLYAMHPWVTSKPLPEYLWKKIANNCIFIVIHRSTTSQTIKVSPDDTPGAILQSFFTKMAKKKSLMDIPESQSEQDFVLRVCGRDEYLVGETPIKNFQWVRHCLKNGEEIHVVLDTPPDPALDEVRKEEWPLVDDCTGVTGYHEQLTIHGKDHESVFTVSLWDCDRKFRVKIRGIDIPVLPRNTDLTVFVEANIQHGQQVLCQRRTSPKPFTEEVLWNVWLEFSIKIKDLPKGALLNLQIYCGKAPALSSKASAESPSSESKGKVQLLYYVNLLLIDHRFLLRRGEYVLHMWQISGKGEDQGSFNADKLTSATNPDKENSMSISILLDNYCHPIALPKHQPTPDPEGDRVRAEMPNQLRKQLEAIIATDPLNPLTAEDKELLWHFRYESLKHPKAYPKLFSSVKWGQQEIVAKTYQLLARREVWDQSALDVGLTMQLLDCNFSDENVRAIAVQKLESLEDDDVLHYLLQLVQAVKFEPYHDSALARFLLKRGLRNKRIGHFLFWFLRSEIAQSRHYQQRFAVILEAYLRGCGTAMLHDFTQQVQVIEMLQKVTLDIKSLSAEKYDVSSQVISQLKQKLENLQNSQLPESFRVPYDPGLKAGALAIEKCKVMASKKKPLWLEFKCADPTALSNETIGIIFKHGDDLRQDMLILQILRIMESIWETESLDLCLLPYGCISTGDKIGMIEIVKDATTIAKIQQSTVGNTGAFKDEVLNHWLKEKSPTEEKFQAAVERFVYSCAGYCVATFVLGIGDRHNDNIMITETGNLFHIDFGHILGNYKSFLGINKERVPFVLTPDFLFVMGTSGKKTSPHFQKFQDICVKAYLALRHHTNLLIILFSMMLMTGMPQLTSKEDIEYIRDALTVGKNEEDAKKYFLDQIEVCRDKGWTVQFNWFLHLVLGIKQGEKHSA

[7] = target: Phosphatidylinositol 4,5-bisphosphate 3-kinase catalytic subunit beta isoform (Homo sapiens, UniProt P42338); assay: Inhibition of recombinant human PI3Kbeta by TR-FRET analysis
Chain of Phosphatidylinositol 4,5-bisphosphate 3-kinase catalytic subunit beta isoform (P42338 whole entry, canonical isoform): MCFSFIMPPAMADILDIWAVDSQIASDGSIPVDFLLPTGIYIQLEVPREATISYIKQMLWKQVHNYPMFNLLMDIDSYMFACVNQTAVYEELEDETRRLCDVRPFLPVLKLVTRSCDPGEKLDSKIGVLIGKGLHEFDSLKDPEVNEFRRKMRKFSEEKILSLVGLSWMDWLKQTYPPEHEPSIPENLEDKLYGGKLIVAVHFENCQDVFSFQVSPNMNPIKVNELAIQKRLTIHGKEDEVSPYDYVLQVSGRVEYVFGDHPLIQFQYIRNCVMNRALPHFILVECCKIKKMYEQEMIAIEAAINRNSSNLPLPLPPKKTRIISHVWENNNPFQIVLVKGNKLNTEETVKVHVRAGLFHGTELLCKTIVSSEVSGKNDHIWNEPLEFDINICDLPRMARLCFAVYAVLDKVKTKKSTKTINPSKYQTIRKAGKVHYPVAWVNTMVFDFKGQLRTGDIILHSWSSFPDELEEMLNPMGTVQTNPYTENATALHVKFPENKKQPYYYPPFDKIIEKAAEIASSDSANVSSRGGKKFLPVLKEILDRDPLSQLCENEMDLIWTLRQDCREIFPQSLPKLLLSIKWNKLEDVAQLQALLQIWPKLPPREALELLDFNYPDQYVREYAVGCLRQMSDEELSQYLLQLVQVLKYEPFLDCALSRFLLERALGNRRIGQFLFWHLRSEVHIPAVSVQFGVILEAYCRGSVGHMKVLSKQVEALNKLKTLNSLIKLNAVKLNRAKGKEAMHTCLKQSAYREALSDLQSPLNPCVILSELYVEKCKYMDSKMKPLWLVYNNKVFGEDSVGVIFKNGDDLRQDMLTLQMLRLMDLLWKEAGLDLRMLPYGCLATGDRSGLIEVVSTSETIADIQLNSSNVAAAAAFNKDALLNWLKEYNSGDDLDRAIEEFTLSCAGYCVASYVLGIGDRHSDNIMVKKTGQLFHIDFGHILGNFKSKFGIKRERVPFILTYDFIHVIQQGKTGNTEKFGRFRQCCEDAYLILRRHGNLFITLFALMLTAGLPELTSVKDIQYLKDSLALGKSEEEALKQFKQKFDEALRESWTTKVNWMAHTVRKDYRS

Histone deacetylase 4 = Histone deacetylase 4 (Homo sapiens, UniProt P56524); assay: Inhibition of HDAC4 in human HeLa nuclear extracts by fluorometric assay
[8] = target: T4, Protein deacetylase HDAC6 (Homo sapiens, UniProt Q9UBN7); assay: Inhibition of HDAC6 in human HeLa nuclear extracts by fluorometric assay
T4 sequence (Q9UBN7 whole entry): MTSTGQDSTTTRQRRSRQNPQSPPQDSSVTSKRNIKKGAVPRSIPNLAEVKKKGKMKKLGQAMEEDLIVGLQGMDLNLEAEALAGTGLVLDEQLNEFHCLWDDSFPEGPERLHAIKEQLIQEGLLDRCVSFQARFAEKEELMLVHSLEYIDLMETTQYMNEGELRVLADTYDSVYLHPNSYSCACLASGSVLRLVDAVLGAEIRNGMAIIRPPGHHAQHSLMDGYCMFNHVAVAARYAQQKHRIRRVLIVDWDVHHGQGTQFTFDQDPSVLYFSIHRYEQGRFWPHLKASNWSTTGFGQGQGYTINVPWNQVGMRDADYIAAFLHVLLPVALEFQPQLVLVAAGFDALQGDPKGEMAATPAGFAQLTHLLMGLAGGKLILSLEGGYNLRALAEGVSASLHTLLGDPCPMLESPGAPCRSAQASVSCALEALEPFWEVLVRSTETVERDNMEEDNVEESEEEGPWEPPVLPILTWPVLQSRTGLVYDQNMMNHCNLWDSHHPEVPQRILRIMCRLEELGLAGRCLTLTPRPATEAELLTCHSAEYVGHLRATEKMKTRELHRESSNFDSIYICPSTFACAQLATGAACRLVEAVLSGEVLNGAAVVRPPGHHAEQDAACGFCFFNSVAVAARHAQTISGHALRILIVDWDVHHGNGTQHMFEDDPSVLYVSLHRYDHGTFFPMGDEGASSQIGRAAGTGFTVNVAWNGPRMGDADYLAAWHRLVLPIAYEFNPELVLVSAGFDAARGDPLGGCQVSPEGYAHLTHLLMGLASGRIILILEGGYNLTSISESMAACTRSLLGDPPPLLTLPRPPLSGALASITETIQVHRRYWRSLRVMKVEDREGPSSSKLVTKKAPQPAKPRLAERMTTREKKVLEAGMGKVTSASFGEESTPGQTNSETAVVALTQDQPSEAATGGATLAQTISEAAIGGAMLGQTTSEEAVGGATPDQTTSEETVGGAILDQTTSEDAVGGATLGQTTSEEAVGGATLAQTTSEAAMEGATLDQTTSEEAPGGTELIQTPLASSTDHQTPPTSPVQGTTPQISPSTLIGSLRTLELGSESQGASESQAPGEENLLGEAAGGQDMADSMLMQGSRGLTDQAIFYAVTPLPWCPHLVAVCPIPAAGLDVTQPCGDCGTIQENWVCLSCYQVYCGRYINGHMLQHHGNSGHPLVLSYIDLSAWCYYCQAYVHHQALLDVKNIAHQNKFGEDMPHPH

Histone deacetylase 5 = Histone deacetylase 5 (Homo sapiens, UniProt Q9UQL6)
Chain of Histone deacetylase 5 (Q9UQL6 whole entry): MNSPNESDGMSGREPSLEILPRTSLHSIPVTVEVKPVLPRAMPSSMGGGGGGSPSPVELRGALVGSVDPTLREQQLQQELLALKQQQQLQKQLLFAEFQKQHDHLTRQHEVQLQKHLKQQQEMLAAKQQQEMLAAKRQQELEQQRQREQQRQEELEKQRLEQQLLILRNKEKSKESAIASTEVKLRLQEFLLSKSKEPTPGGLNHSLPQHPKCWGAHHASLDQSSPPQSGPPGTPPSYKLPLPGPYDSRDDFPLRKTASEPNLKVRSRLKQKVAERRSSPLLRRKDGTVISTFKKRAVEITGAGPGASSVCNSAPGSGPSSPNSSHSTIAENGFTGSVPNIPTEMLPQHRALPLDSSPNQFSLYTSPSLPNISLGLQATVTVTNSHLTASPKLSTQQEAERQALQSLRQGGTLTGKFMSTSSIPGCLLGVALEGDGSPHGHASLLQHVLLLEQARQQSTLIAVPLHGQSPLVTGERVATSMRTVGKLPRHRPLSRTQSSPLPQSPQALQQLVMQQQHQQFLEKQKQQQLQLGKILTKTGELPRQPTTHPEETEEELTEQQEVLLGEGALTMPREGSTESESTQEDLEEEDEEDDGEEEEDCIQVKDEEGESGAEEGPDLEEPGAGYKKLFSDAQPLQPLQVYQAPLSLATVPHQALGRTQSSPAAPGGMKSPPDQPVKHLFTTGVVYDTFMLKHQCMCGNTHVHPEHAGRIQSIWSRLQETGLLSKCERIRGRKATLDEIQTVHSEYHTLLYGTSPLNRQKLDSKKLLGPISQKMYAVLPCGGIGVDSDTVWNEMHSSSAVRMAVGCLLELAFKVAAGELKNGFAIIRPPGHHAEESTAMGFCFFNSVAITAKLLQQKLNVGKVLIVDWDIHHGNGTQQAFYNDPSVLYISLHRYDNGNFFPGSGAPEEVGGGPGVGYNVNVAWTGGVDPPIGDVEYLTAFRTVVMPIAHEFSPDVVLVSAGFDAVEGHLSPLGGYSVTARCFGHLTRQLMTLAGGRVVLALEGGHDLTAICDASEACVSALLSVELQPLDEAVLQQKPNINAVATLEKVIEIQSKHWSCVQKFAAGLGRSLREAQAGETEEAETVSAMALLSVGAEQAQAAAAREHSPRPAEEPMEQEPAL
Description: Inhibition of HDAC5 in human HeLa nuclear extracts by fluorometric assay

Histone deacetylase 8 = target: T5, Histone deacetylase 8 (Homo sapiens, UniProt Q9BY41); assay: Inhibition of HDAC8 in human HeLa nuclear extracts by fluorometric assay
T5 sequence (Q9BY41 whole entry): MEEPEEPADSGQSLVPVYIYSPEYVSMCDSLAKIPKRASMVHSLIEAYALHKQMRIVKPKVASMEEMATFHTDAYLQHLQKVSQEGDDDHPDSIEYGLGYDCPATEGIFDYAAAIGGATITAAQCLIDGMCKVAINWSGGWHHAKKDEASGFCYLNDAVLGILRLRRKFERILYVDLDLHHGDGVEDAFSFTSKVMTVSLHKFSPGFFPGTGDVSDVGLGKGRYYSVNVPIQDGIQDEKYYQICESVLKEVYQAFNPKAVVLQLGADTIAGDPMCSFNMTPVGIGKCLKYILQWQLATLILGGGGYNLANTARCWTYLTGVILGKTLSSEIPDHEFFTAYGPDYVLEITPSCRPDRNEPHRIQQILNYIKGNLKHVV

[9] = target: Tyrosine-protein kinase JAK1 (Homo sapiens, UniProt P23458); assay: Inhibition of JAK1 (unknown origin) after 20 mins by radiometric analysis in presence of [gamma33P]-ATP
[10] = target: T6, Tyrosine-protein kinase JAK3 (Homo sapiens, UniProt P52333); assay: Inhibition of JAK3 (unknown origin) after 20 mins by radiometric analysis in presence of [gamma33P]-ATP
T6 sequence (P52333 whole entry): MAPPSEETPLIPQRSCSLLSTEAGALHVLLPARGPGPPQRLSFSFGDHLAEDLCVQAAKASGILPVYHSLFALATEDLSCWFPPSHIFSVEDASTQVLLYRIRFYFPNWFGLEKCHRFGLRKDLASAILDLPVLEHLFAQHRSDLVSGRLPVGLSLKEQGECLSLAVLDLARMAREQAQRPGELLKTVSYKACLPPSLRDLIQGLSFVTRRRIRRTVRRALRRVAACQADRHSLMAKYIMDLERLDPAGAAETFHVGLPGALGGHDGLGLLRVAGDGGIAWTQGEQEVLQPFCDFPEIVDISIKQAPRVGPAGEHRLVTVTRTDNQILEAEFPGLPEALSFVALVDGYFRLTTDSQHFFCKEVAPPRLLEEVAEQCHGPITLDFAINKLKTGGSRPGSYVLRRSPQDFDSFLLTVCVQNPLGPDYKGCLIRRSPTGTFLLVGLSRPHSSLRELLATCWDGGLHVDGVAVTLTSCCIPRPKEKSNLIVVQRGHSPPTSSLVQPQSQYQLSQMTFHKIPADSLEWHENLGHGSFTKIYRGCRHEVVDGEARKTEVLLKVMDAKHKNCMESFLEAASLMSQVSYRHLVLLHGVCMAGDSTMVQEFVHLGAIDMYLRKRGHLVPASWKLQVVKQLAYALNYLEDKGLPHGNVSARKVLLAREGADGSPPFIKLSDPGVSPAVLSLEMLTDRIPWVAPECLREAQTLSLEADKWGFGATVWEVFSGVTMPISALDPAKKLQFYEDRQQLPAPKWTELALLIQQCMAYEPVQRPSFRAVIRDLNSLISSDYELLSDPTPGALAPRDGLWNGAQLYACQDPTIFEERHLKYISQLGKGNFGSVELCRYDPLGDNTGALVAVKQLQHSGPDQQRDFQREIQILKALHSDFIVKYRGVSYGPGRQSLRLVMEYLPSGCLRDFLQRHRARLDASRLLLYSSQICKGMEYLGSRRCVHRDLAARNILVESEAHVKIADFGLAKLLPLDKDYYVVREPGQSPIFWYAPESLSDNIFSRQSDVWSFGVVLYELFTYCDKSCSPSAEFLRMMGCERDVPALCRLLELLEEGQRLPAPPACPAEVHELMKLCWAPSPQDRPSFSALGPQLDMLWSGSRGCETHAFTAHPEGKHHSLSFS

[11] = target: Non-receptor tyrosine-protein kinase TYK2 (Homo sapiens, UniProt P29597); assay: Inhibition of TYK2 (unknown origin) after 20 mins by radiometric analysis in presence of [gamma33P]-ATP
Chain of Non-receptor tyrosine-protein kinase TYK2 (P29597 whole entry): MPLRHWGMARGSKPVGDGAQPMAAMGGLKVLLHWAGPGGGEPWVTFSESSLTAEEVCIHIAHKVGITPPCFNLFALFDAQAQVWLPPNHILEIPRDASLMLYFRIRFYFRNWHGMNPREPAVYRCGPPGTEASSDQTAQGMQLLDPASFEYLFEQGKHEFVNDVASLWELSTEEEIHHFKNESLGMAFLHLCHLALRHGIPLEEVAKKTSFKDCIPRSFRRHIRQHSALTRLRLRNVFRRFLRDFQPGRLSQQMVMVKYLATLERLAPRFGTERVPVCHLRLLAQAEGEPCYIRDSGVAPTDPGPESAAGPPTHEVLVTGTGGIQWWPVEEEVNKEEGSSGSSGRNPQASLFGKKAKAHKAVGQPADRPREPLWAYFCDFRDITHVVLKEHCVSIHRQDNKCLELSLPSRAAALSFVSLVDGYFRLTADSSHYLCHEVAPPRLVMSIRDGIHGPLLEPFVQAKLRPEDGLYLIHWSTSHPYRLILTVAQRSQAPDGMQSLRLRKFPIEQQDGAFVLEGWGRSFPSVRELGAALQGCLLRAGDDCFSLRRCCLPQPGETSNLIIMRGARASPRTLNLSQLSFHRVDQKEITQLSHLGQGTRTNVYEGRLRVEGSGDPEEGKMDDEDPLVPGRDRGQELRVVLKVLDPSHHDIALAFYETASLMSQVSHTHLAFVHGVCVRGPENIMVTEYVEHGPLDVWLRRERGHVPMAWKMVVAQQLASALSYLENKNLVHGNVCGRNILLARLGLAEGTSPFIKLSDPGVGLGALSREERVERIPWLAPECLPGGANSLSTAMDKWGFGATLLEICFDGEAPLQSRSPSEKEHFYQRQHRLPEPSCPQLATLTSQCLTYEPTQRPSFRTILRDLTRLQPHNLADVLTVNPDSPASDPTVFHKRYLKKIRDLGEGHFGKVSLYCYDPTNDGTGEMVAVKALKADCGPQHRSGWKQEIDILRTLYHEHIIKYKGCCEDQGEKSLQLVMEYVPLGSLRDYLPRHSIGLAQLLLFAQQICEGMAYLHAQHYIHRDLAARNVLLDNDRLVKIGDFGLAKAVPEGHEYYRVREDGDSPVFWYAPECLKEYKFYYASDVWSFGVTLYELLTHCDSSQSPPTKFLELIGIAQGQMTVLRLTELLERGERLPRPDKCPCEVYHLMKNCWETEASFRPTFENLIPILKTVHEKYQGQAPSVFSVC

[12] = target: Tyrosine-protein kinase JAK2 (Homo sapiens, UniProt O60674); assay: Inhibition of JAK2 (unknown origin) after 20 mins by radiometric analysis in presence of [gamma33P]-ATP

N[C@@H]1C[C@H]1c1ccc(OCC[C@H](NC(=O)c2ccccc2)C(=O)NCc2ccccc2)cc1
IC50 [1]: > 1000 µM
IC50 [2]: 290 µM

NC1CC1c1cccc(OCC[C@H](NC(=O)c2ccccc2)C(=O)NCc2ccccc2)c1 (stereo partly drawn)
IC50 [1]: 500 µM
IC50 [2]: 230 µM

O=C(N[C@@H](CCCCNC1CC1c1ccccc1)C(=O)NCc1ccccc1)c1ccccc1 (stereo partly drawn)
IC50 [3]: > 25 µM

C[C@@H]1COCCN1c1cc(=O)n2c(n1)N(Cc1cncc(Cl)c1)[C@H](C(F)(F)F)CC2
IC50 [4]: > 10 µM
IC50 [5]: > 10 µM
IC50 [6]: > 10 µM
IC50 [7]: > 10 µM

Nc1ccccc1NC(=O)c1ccc(-c2cn(CCc3ccsc3)nn2)cc1
IC50 (Histone deacetylase 4): > 100 µM
IC50 [8]: > 100 µM
IC50 (Histone deacetylase 5): > 100 µM
IC50 (Histone deacetylase 8): > 100 µM

Nc1ccccc1NC(=O)c1ccc(-c2cn(CCc3cccc([N+](=O)[O-])c3)nn2)s1
IC50 (Histone deacetylase 5): > 100 µM

c1nc(-c2cn(CC3CO3)nn2)c2cc[nH]c2n1 (stereo not drawn)
IC50 [9]: 2.73 µM
IC50 [10]: 0.035 µM
IC50 [11]: 5.62 µM
IC50 [12]: 2.45 µM
